The results in this text go back to patent US8697687B2, “Treating diseases mediated by blockade of the epithelial sodium channel with pyrazine-2-carboxamide derivatives” (Novartis AG, priority 2007, dated 2014).

The target in the assay is T1, epithelial sodium channel (ENaC) (Homo sapiens, UniProt P37088+P51168+P51170).
T1 construct: host or cells: primary Human Bronchial Epithelial cells (HBECs), air-liquid interface culture
T1 sequence (P37088 1-669): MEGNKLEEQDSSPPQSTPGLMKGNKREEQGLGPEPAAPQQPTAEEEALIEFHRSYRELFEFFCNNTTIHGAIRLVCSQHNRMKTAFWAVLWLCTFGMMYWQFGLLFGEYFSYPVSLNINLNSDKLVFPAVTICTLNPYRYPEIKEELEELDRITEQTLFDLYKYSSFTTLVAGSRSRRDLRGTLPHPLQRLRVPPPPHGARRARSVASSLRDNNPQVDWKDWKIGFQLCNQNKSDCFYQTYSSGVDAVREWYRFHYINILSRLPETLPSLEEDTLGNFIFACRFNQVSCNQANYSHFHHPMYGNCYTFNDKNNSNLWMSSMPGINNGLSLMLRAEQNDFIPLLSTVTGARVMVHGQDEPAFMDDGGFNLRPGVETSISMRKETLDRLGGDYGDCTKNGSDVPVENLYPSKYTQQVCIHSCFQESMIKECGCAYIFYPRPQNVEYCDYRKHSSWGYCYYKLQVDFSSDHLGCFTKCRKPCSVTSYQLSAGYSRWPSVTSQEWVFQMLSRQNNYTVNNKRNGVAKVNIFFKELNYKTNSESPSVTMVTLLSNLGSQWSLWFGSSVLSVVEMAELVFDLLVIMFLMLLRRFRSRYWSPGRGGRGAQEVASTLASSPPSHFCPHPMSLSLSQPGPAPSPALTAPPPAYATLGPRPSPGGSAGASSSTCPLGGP
T1 sequence (P51168 1-640): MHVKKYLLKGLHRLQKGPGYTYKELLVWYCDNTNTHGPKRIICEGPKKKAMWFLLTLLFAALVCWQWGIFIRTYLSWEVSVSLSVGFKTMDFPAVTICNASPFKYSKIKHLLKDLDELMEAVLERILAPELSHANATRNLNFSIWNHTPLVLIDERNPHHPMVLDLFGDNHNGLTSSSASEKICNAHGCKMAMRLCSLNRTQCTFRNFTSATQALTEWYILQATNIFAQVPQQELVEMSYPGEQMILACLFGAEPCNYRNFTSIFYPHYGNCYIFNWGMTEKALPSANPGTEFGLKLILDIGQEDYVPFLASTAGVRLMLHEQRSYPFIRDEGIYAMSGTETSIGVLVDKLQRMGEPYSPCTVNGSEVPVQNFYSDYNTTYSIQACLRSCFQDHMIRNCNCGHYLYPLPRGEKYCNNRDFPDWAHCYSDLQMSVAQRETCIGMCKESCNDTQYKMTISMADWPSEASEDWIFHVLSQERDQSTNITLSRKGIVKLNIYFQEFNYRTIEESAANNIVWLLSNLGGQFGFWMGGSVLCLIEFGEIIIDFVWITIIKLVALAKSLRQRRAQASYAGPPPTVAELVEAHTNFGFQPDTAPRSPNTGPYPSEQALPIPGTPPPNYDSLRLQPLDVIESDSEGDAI
T1 sequence (P51170 1-649): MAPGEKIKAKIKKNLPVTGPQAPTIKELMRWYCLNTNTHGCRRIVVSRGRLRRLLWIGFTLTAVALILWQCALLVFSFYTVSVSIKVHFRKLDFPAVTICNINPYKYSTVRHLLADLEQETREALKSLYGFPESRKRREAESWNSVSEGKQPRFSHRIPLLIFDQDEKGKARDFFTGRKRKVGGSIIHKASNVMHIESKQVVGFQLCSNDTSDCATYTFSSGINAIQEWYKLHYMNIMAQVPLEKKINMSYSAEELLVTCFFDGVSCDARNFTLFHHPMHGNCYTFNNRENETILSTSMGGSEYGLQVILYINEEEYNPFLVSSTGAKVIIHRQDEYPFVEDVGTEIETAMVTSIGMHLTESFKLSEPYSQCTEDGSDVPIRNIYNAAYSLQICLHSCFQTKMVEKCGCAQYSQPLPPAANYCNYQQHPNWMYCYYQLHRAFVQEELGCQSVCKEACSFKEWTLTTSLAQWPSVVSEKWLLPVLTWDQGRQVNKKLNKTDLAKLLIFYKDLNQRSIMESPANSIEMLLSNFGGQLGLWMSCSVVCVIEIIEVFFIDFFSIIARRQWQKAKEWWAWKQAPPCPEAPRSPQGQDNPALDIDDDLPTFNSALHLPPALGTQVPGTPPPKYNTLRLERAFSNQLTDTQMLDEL
Briefly: Short circuit current (ISC) measurements in Human Bronchial Epithelial cells, inhibition of amiloride-sensitive ISC. Format: cell-based. As for the experimental part:
Compounds of formula (I) and their pharmaceutically acceptable salts, hereinafter referred to alternatively as “agents of the invention”, are useful as pharmaceuticals. In particular, the compounds have good ENaC blocker activity and may be tested in the following assays.
Human Bronchial Epithelial cells (HBECs) (Cambrex) were cultured under air-liquid interface conditions to provide a well differentiated mucociliary phenotype.
HBECs were cultured using a modification of the method described by Gray and colleagues (Gray et al., 1996). Cells were seeded in plastic T-162 flasks and were grown in bronchial epithelial cell growth medium (BEGM; Cambrex) supplemented with bovine pituitary extract (52 μg/mL), hydrocortisone (0.5 μg/mL), human recombinant epidermal growth factor (0.5 ng/mL), epinephrine (0.5 μg/mL), transferrin (10 μg/mL), insulin (5 μg/mL), retinoic acid (0.1 μg/mL), triiodothyronine ([…]), gentamycin (50 μg/mL) and amphotericin B (50 ng/mL). Medium was changed every 48 hours until cells were 90% confluent. Cells were then passaged and seeded (8.25×10^5 cells/insert) on polycarbonate Snapwell inserts (Costar) in differentiation media containing 50% DMEM in BEGM with the same supplements as above but without triiodothyronine and a final retinoic acid concentration of 50 nM (all-trans retinoic acid). Cells were maintained submerged for the first 7 days in culture, after which time they were exposed to an apical air interface for the remainder of the culture period. At this time, media was changed to DMEM:F12 media containing 2% v/v Ultroser G for the remainder of culture. Amphotericin B was removed from all media 3 feeds prior to use in the Using Chambers. Cells were used between days 7 and 21 after establishment of the apical-air interface. At all stages of culture, cells were maintained at 37° C. in 5% CO2 in an air incubator.
Short Circuit Current (ISC) Measurements
Snapwell inserts were mounted in Vertical Diffusion Chambers (Costar) and were bathed with continuously gassed Ringer solution (5% CO2 in O2; pH 7.4) maintained at 37° C. containing (in mM): 120 NaCl, 25 NaHCO3, 3.3 KH2PO4, 0.8 K2HPO4, 1.2 CaCl2, 1.2 MgCl2, and 10 glucose. The solution osmolarity was between 280 and 300 mOsmol/kg H2O for all physiological salt solutions used. Cells were voltage clamped to 0 mV (model EVC4000; WPI). RT was measured by applying a 1- or 2-mV pulse at 30-s intervals and calculating RT by Ohm's law. Data were recorded using a PowerLab workstation (ADInstruments).
Test compounds were prepared as a 10 mM stock solution in DMSO (95%). Serial 3-fold dilutions were freshly prepared in an appropriate vehicle (distilled H2O or Ringers solution). The initial concentration was added to the apical chamber as a 1000× concentrate in 5 μL, resulting in a final 1× concentration the 5 mL volume of the Ussing chamber. Subsequent additions of compound were added in a 3.3 μL volume of the 1000× serially diluted stock solution. At the completion of the concentration-response experiment, amiloride (10 μM) was added into the apical chamber to enable the total amiloride-sensitive current to be measured. An amiloride control IC50 was established at the start of each experiment.
Results are expressed as the mean % inhibition of the amiloride-sensitive ISC. Concentration-response curves were plotted and IC50 values generated using GraphPad Prism 3.02. Cell inserts were typically run in duplicate and the IC50 calculated on the mean % inhibition data.

Where [1] appears, read: inhibition of the amiloride-sensitive ISC, Human Bronchial Epithelial cells (HBECs) at air-liquid interface, compound added to apical chamber, read-out: IC50.

Structures are written as SMILES. Like-named read-outs stand apart in the source and are kept apart here.

For the compound `Nc1nc(N)c(C(=O)/N=C2\NCC3(CCN(C(=O)c4cocn4)CC3)N2)nc1Cl` [Example 118, 3,5-Diamino-6-chloro-pyrazine-2-carboxylic acid [8-(oxazole-4-carbonyl)-1,3,8-triaza-spiro[4.5]dec-(2E)-ylidene]-amide], the half-maximal inhibitory concentration (IC50) under setting [1] is 175 nM.

For `Nc1nc(N)c(C(=O)/N=C2\NCC3(CCN(C(=O)NCCc4cccc(OCc5ccccc5)c4)CC3)N2)nc1Cl` [Example 220, 2-[(E)-3,5-Diamino-6-chloro-pyrazine-2-carbonylimino]-1,3,8-triaza-spiro[4.5]decane-8-carboxylic acid [2-(3-benzyloxy-phenyl)-ethyl]-amide], under setting [1], the IC50 was 8.5 nM.

Consider `Nc1nc(N)c(C(=O)/N=C2/NC[C@@H](CCCc3ccc(OCC(=O)N4CCOCC4)cc3)N2)nc1Cl` [Example 23, 3,5-Diamino-6-chloro-pyrazine-2-carboxylic acid [(R)-4-{3-[4-(2-morpholin-4-yl-2-oxo-ethoxy)-phenyl]-propyl}-imidazolidin-(2Z)-ylidene]-amide], for which, under setting [1], the IC50 amounted to 33.5 nM.

Turning to `Cc1[nH]c2ccc(CC(=O)N3CCC4(CC3)CN/C(=N\C(=O)c3nc(Cl)c(N)nc3N)N4)cc2c1C` [Example 48, 3,5-Diamino-6-chloro-pyrazine-2-carboxylic acid [8-[2-(2,3-dimethyl-1H-indol-5-yl)-acetyl]-1,3,8-triaza-spiro[4.5]dec-(2E)-ylidene]-amide], the IC50 under setting [1] is 16.5 nM.

Take `CC(C)(CCOCc1ccccc1)C[C@H]1CN/C(=N/C(=O)c2nc(Cl)c(N)nc2N)N1` [Example 26]: under setting [1], the concentration for half-maximal inhibition (IC50) worked out at 11 nM.

As to `Nc1nc(N)c(C(=O)/N=C2\NCC3(CCN(C(=O)c4cccc5[nH]ccc45)CC3)N2)nc1Cl` [Example 99, 3,5-Diamino-6-chloro-pyrazine-2-carboxylic acid [8-(1H-indole-4-carbonyl)-1,3,8-triaza-spiro[4.5]dec-(2E)-ylidene]-amide], the IC50 under setting [1] turned out to be 19 nM.

Regarding `Nc1nc(N)c(C(=O)/N=C2\NCC3(CCN(S(=O)(=O)Cc4ccccc4)CC3)N2)nc1Cl` [Example 232, 3,5-Diamino-6-chloro-pyrazine-2-carboxylic acid [8-phenylmethanesulfonyl-1,3,8-triaza-spiro[4.5]dec-(2E)-ylidene]-amide], under setting [1], the IC50 was determined as 54 nM.

On to `Nc1nc(N)c(C(=O)/N=C2\NCC3(CCN(C(=O)[C@H]4CC[C@H](C(=O)N5CCC6(CC5)CN/C(=N\C(=O)c5nc(Cl)c(N)nc5N)N6)CC4)CC3)N2)nc1Cl` [Example 94], for which the IC50 under setting [1] was 9 nM.

Take `Nc1nc(N)c(C(=O)/N=C2\NCC3(CCN(C(=O)NCc4ccccc4)CC3)N2)nc1Cl` [Example 215, 2-[(E)-3,5-Diamino-6-chloro-pyrazine-2-carbonylimino]-1,3,8-triaza-spiro[4.5]decane-8-carboxylic acid benzylamide]: under setting [1], the IC50 was 36 nM.

For `CC(C)NC(=O)Nc1cc(C(=O)N2CCC3(CC2)CN/C(=N\C(=O)c2nc(Cl)c(N)nc2N)N3)ccn1` [Example 62, 3,5-Diamino-6-chloro-pyrazine-2-carboxylic acid [8-[2-(3-isopropyl-ureido)-pyridine-4-carbonyl]-1,3,8-triaza-spiro[4.5]dec-(2E)-ylidene]-amide], under setting [1], the half-maximal inhibitory concentration (IC50) was 13 nM.

In the case of `COc1cc(OC)nc(COc2ccc(C(=O)N3CCC4(CC3)CN/C(=N\C(=O)c3nc(Cl)c(N)nc3N)N4)cc2)n1` [Example 61, 3,5-Diamino-6-chloro-pyrazine-2-carboxylic acid [8-[4-(4,6-dimethoxy-pyrimidin-2-ylmethoxy)-benzoyl]-1,3,8-triaza-spiro[4.5]dec-(2E)-ylidene]-amide], the IC50 under setting [1] worked out at 346 nM.

`Nc1nc(N)c(C(=O)/N=C2\NCC3(CCN(C(=O)c4ccc(C(=O)N5CCC6(CC5)CN/C(=N\C(=O)c5nc(Cl)c(N)nc5N)N6)cc4)CC3)N2)nc1Cl` [Example 96]: the IC50 worked out at 37 nM.

For the compound `CC(C)(C)OC(=O)c1ccc(C(=O)N2CCC3(CC2)CN/C(=N\C(=O)c2nc(Cl)c(N)nc2N)N3)cc1` [Example 76, 4-{2-[(E)-3,5-Diamino-6-chloro-pyrazine-2-carbonylimino]-1,3,8-triaza-spiro[4.5]decane-8-carbonyl}-benzoic acid tert-butyl ester], the IC50 under setting [1] was determined as 12 nM.

With `Nc1nc(N)c(C(=O)/N=C2\NCC3(CCN(C(=O)CCc4ccc(OCc5ccncc5)cc4)CC3)N2)nc1Cl` [Example 70, 3,5-Diamino-6-chloro-pyrazine-2-carboxylic acid [8-{3-[4-(pyridin-4-ylmethoxy)-phenyl]-propionyl}-1,3,8-triaza-spiro[4.5]dec-(2E)-ylidene]-amide], the IC50 under setting [1] worked out at 74 nM.

For the compound `Nc1nc(N)c(C(=O)/N=C2\NCC3(CCN(C(=O)NCCCc4ccccn4)CC3)N2)nc1Cl` [Example 228, 2-[(E)-3,5-Diamino-6-chloro-pyrazine-2-carbonylimino]-1,3,8-triaza-spiro[4.5]decane-8-carboxylic acid (3-pyridin-2-yl-propyl)-amide], the IC50 under setting [1] turned out to be 93.5 nM.

As a reminder, the IC50 is the concentration needed to halve the response being measured.
